According to patent publication US9180174B2, “Conjugates comprising mannan and myelin oligodentrocyte glycoprotein (MOG)” (priority 2008, dated 2015):
Ends that are not written are not given here.

What was measured:
PLP139-151-EAE = experiment: Prophylactic vaccination before PLP139-151-EAE induction, clinical score; assay type: in vivo, SJL/J mice; details: FIG. 10; for clinical score (peak): 6-grade scale, 0.5 = weight loss
Protocol: (§1) Groups of female animals (age range 6-10 week old C57BL/6 or SJL/J mice and 12-15 week old Lewis rats) were immunized intra-dermally with 100 μl solution containing 30 μg peptide (MOG35-55) or 50 μg PLP139-151 peptide for mice and 30 μg MBP83-99 for Lewis rats) conjugated to 70 μg oxidized or reduced mannan diluted in bi-carbonate buffer, pH 9.0. As controls, age matched groups of animals were vaccinated with oxidized or reduced mannan alone, saline or 30-50 μg of peptide alone. Three consecutive vaccinations were performed spaced 15 days apart. Fifteen days after the last vaccination EAE was induced.
EAE was induced in SJL/J mice using a standard protocol. 150 μg of PLP139-151 was dissolved in PBS and emulsified in an equal volume of CFA (containing […] of heat killed Mycobacterium Tuberculosis HR37a, Sigma). On Day 0 (day of disease induction), one s.c injection was given by injecting 150 μg PLP139-151/200 μl per mouse in both of the flanks. Each mouse also received 400 ng pertussis toxin (Sigma, P2980) (i.p) dissolved in 200 μl PBS. On day 2, mice were received a booster of pertussis toxin (200 ng pertussis toxin dissolved in 200 μl PBS per mouse) Animals were daily evaluated for clinical signs of disease, starting from day 1 post immunisation, using a 6-grade clinical scale: 0, normal animal; 0.5, weight loss; 1, inability to elevate the tail above the horizontal level, tail weakness; 2, tail paralysis; 3, tail paralysis/hind limb paresis; 4, hind limb paralysis/forelimb weakness; 5, quadriplegia/moribund; 6, death from EAE. Moreover, animals were daily weighted throughout the entire experimental period.

MOG35-55-EAE [1] = experiment: Prophylactic vaccination before MOG35-55-EAE induction, clinical score and body weight; assay type: in vivo, C57BL/6 mice; details: for protection from MOG35-55-EAE development (clinical score): three vaccinations 15 days apart, EAE induced 15 days after the last, FIG. 1
MOG35-55-EAE [2] = experiment: Histopathological analysis of spinal cord and brain after MOG35-55-EAE induction; assay type: in vivo, C57BL/6 mice
splenocytes [3] = experiment: T cell priming and proliferation assay, [3H]-thymidine incorporation, ex vivo MOG35-55 recall; assay type: cell-based, C57BL/6 mice; details: day 25 post EAE induction, versus mannan alone or PBS; FIGS. 7 and 8
Protocol: Isolated splenocytes were cultured for 72 h in 96-well plates in RPMI 1640 (Invitrogen Life Technologies, Gaithersburg, Md.) containing 10% heat-inactivated FCS, 50 μM 2-ME, and increasing concentrations of MOG35-55 peptide. Cells were stimulated in triplicate at 2×10^6 cells/ml in round-bottom, 96-well plates (Costar). Cells were pulsed with 1 μCi/5×10^5 cells [^3H]-thymidine in triplicate (Amersham Radiochemicals) for the last 16 h of culture. [^3H]-thymidine incorporation was measured by liquid scintillation counting (Wallac, Turku, Finland). Results are expressed as the stimulation index (ratio between radioactivity counts of cells cultured in presence of peptide and cells cultured with media alone).

splenocytes [4] = experiment: Cytokines in splenocyte culture supernatants (cytometric bead array, IL-17 ELISA); assay type: cell-based, C57BL/6 mice; details: 10 μg/ml MOG35-55, day 25 post EAE induction; FIG. 9
Text: The mouse Th1/Th2 cytokine cytometric bead array kit (BD Biosciences) was used to measure cytokine levels in culture supernatants according to the manufacturer's instructions. The cytokines measured with this kit were: IL-2, IL-4, IL-5, IFN-γ and TNF-α. In addition a mouse IL-17 ELISA set (R&D Systems, Germany) was used to measure cytokine secretion from splenocyte cell culture supernatants according to manufacturer's instructions. The sensitivity of the assay for different cytokines was as follows: IL-2, IL-4 and IL-5=5.0 pg/ml; IFN-γ=2.5 pg/ml; TNF-α=6.3 pg/ml.

EAE = EAE in animal models (summary statements); assay type: in vivo; details: unconjugated peptide
Protocol: as §1

[5] = 24 days after EAE induction, FIG. 5

## reduced mannan-PLP139-151: PLP139-151 peptide with a [(Lys-Gly)5] bridge conjugated to mannan, reduced with sodium borohydride
PLP139-151-EAE
  clinical score (peak): 0.5
  induction of / protection from PLP139-151-EAE: did not induce EAE

## oxidized mannan-MOG35-55: MOG35-55 peptide with a [(Lys-Gly)5] bridge conjugated to oxidized mannan via Schiff base formation (MEVGWYRSPFSRVVHLYRNGK; also: (Lys-Gly)5 bridge, site not given here, conjugated to oxidized mannan via Schiff base; UniProt Q61885 63-83, looked up, fragment)
MOG35-55-EAE [1]; FIG. 2
  wasting symptoms (daily weight measurement): absence of wasting symptoms
MOG35-55-EAE [1]
  protection from MOG35-55-EAE development (clinical score): significant protection
MOG35-55-EAE [1]; listed as MOG35-55 peptide conjugated to oxidized mannan
  protection from MOG35-55-EAE development (clinical score): greatest degree of protection
MOG35-55-EAE [2]; [5]
  demyelinating lesions in the spinal cord: no demyelinating lesions
  inflammatory infiltration in the spinal cord: little inflammatory infiltration
MOG35-55-EAE [2]; individual mice, FIG. 6
  inflammatory and demyelination index, brain and spinal cord: marked reduction
Splenocytes [3]
  proliferation of splenocytes: Significant reduced proliferation
Splenocytes [4]
  amount of IL-17 secreted by MOG35-55 specific T cells: reduction
  levels of Th1 cytokines (IFN-γ, TNF-α, IL-2): reduction

## H-Glu-Asn-Pro-Val-Val-His-Phe-Phe-Lys-Asn-Ile-Val-Thr-Pro-Arg-Thr-Pro-OH (H-ENPVVHFFKNIVTPRTP-OH) [MBP83-99]
EAE
  induction of EAE by the linear peptide: induce EAE

## oxidized mannan-PLP139-151: PLP139-151 peptide with a [(Lys-Gly)5] bridge conjugated to oxidized mannan via Schiff base formation
PLP139-151-EAE
  clinical score (peak): 0.5
  induction of / protection from PLP139-151-EAE: did not induce EAE
PLP139-151-EAE; listed as PLP139-151-oxidized mannan
  induction of / protection from PLP139-151-EAE: completely protected

## H-Met-Glu-Val-Gly-Trp-Tyr-Arg-Pro[Ser]-Pro-Phe-Ser-Arg-Val-Val-His-Leu-Tyr-Arg-Asn-Gly-Lys-OH [MOG35-55, reference compound]
MOG35-55-EAE [1]; after day 20, FIGS. 3 and 4
  disease course after day 20 of disease progression: exacerbated
MOG35-55-EAE [1]; initial stages, FIGS. 3 and 4
  EAE compared to non vaccinated controls at initial stages of disease: significantly lower
MOG35-55-EAE [1]; three prior challenges with unconjugated peptide, FIGS. 3 and 4
  susceptibility to MOG-EAE after vaccination with peptide alone: still susceptible to MOG-EAE
MOG35-55-EAE [1]; versus non-vaccinated controls, FIGS. 3 and 4
  delay of EAE initiation: 3 days
Splenocytes [3]
  proliferation of splenocytes: did not show a reduction
EAE
  induction of EAE by the linear peptide: induce EAE

## reduced mannan-MOG35-55: MOG35-55 peptide with a [(Lys-Gly)5] bridge conjugated to mannan, reduced with sodium borohydride (MEVGWYRSPFSRVVHLYRNGK; also: (KG)5 bridge, site not given here, conjugated to mannan, reduced with sodium borohydride; UniProt Q61885 63-83, looked up, fragment)
MOG35-55-EAE [1]
  protection from MOG35-55-EAE development (clinical score): significant protection
MOG35-55-EAE [1]; listed as MOG35-55 peptide conjugated to reduced mannan
  protection from MOG35-55-EAE development (clinical score): significant inhibition from disease manifestation
MOG35-55-EAE [2]; [5]
  extent of lymphocyte infiltration and demyelination (overall protective effect): Intermediate protective effects
Splenocytes [3]
  proliferation of splenocytes: Significant reduced proliferation
Splenocytes [4]
  amount of IL-17 secreted by MOG35-55 specific T cells: reduction
  levels of Th1 cytokines (IFN-γ, TNF-α, IL-2): reduction

## H-His-Ser-Leu-Gly-Lys-Trp-Leu-Gly-His-Pro-Asp-Lys-Phe-OH (H-HSLGKWLGHPDKF-OH) [PLP139-151]
EAE
  induction of EAE by the linear peptide: induce EAE
